From PMC3266722 (Journal of Medicinal Chemistry, 2011)
pEC50: −log10 of the molar value.

What was measured:
[1] = target: T1, hA1AR (Homo sapiens, UniProt P30542); conditions: percent inhibition of specific radioligand binding at 10 μM; ref [11]; cited from earlier work
T1 sequence (P30542 1-326): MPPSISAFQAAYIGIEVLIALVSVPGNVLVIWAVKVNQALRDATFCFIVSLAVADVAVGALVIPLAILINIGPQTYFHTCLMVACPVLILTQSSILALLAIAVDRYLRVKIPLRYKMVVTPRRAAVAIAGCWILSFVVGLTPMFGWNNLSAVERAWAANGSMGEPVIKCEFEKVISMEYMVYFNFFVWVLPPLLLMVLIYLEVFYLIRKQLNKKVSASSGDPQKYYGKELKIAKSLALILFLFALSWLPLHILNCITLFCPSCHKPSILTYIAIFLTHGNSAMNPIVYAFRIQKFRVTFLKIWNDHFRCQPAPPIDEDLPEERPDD

[2] = target: T2, hA2AAR (Homo sapiens, UniProt P29274); conditions: compared to the standard CGS21680; cited from earlier work
[3] = target: T3, hA2BAR (Homo sapiens, UniProt P29275); conditions: read-out: EC50, cyclic AMP accumulation at hA2BAR; CHO cells; cited from earlier work
T3 sequence (P29275 1-332): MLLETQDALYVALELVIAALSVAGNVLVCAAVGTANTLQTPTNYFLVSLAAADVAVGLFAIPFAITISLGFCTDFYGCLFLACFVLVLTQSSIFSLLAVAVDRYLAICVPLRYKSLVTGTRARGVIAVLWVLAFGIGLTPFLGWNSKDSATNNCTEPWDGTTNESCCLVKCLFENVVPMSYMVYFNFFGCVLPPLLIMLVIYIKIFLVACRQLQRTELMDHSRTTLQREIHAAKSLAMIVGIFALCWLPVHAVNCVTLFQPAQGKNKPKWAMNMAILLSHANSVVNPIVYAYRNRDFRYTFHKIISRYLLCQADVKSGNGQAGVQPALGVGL

[4] = target: T2, hA2AAR; experiment: Radioligand binding assay at human A2A receptor; conditions: ratio of Ki values
[5] = target: T2, hA2AAR; conditions: percent inhibition of specific radioligand binding at 10 μM; ref [11]; cited from earlier work

T2 sequence (P29274 whole entry): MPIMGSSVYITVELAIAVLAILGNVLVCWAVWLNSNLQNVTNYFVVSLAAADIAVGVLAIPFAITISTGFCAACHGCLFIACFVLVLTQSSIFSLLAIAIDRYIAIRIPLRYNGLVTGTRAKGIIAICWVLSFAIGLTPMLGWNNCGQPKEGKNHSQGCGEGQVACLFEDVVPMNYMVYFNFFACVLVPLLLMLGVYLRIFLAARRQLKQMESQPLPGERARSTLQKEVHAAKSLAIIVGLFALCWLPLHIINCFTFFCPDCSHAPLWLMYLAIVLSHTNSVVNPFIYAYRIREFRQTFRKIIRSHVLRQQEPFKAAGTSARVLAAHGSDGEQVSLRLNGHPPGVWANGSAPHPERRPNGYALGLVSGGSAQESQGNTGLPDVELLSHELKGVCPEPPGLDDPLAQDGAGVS

SMILES | Affinity (% inhibition) hA1 [1] [%] | agonist efficacy at hA2AAR [2] | pEC50 [3] | decrease of hA2AAR binding affinity in comparison to 4g [4] [fold] | Affinity (% inhibition) hA2A [5] [%]
CCCCC#Cc1nc(N)c2ncn([C@@H]3SCC(O)C3O)c2n1 (stereo in doubt) [Compound 4g, (−)-(2R,3S,4R)-2-(6-Amino-2-(hex-1-ynyl)-9H-purin-9-yl)tetrahydrothiophene-3,4-diol] | 39 ± 10 | full agonist | ~5.00 | – | –
CCCCC#Cc1nc(NCc2cccc(Cl)c2)c2ncn([C@@H]3SCC(O)C3O)c2n1 (stereo in doubt) [Compound 4i, (−)-(2R,3S,4R)-2-(6-(3-Chlorobenzylamino)-2-(hex-1-ynyl)-9H-purin-9-yl)tetrahydrothiophene-3,4-diol] | – | – | – | 520 | –
CCCCC#Cc1nc2c(N)ncnc2n1[C@@H]1SCC(O)C1O (stereo in doubt) [Compound 4o, (−)-(2R,3S,4R)-2-(6-Amino-8-(hex-1-ynyl)-9H-purine-9-yl)-tetrahydrothiophene-3,4-diol] | 49.3 ± 4.9 | – | – | – | 46.5 ± 4.3
CCCC/C=C/c1nc2c(N)ncnc2n1[C@@H]1SCC(O)C1O (stereo in doubt) [Compound 4r, (−)-(2R,3S,4R)-2-(6-Amino-8-(hex-1-enyl)-9H-purine-9-yl)-tetrahydrothiophene-3,4-diol] | 3.7 ± 2.9 | – | – | – | 22.8 ± 6.4
CCCC/C=C/c1nc(N)c2ncn([C@@H]3SC[C@@H](O)[C@H]3O)c2n1 [Compound 4m] | 16.2 ± 8.4 | – | – | – | –
